Source: patent US20020042374A1, “METHOD OF TREATING INSULIN INSENSITIVITY AND SYNDROME X” (priority 1997, published 2002)
pKi: −log10 of the molar value. Where two headings read alike, the source gives them in different places. Positions of bridges follow the written chain, without caps; N, C: chain ends. Non-standard residues stand in square brackets, D forms with d. Residues, ends and D or L forms follow the SMILES beside them.

Key:
[1] = target: human SSTR-1 (Homo sapiens, UniProt P30872); experiment: Somatostatin receptor binding assay, hSSTR-1
Chain of human SSTR-1 (P30872 whole entry): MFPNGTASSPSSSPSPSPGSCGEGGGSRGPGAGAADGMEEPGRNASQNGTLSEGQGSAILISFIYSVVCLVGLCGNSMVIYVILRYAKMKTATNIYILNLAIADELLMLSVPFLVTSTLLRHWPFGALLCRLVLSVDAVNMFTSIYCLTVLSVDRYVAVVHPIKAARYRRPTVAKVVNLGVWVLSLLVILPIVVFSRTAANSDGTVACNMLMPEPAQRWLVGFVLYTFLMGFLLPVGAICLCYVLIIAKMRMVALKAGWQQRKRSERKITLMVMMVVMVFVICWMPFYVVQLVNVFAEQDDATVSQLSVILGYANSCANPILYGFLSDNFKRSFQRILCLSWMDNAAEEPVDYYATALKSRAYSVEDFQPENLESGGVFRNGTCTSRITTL

[2] = system: fatty (fa/fa) Zucker rats; experiment: Insulin sensitivity study, oral glucose challenge after one week treatment; format: in vivo, rat; details: 3 mg/kg s.c. twice daily, 7 days
Experimental: Male fatty Zucker rats (Harlan-Olac, Bicester, Oxon, U.K.), which were 15-17 weeks old, were randomly divided into two groups. The animals were house in pairs in a normal 12 hour light:12 hour darkness cycle at 20±2° C. and fed a standard laboratory rat diet (Beekay rat and mouse diet, Bantin & Kingman, Hull, Humberside, U.K.) ad libitum. For the group assigned to receive drug treatment, the rats received BIM-23268C at 3 mg/kg, by subcutaneous injection, twice a day at 10:00 AM and 5:00 PM. The other group, the control group, was treated with a subcutaneous injection of 0.lml/100 g of saline twice a day at 10:00 AM and 5:00 PM. […] On the last day of treatment, at 5:00 PM food was removed, and the rats were fasted overnight.
A method for assessing insulin sensitivity is to administer an oral glucose challenge and monitoring the secretion of insulin and disposal of glucose from the blood stream over a 240 min period (Bergman, R. N., et al., Endocrine Review 6:45-86 (1985)). […] 20 μl blood samples were taken from tail vein (Abdel-Halim, S. M., et al., Diabetes 43:281-288 (1994)) at −60 min, −30 min, 0 min, 30 min, 60 min, 90 min, 120 min, and 240 min.
The 20 μl samples were taken into 380 μl of hemolysis reagents (Sigma, Poole, Dorset, UK) containing 50 mg/liter of digitonin (Cat# D-1407) and 100 mg/liter of Maleimide (M-3766). From this, 100 μl of the hemolysed blood sample was added to 0.9 ml of Tinder reagent (Sigma Enzymatic calorimetric assay for blood glucose, Cat# 315-100, Sigma Chemical Co. Ltd, Poole, Dorset, UK). Blood glucose was determined according to vendor's recommendation at 505 nm.
Insulin was measured by the conventional radioimmunoassay method as described (Dunmore, S., & Beloff-Chain, A., J Endocrinol. 92:15-21 (1982)). Samples were assayed in triplicates with a 1:30000 dilution of an insulin antiserum (from guinea pig)raised in the laboratory (Dunmore, S. J., et al., J. Endocrinol. 137:375-381 (1993), and using ^125I-labelled bovine insulin, iodinated by the chloramine T method (Sambrook, et al., Molecular Cloning- A Laboratory Manual, Ed. 2., Cold Spring Harbor Laboratory Press, 1989). Rat insulin (2000U/0.1 ml, Novo Nordisk Laboratories, Basingstoke, Hants, U.K.) was used as a standard in the assay. The standards and samples were diluted in assay buffer containing NaH2PO4 5.7 g/L, bovine serum albumin (Sigma A4378, Sigma Chemical Co. Ltd., Poole, Dorset, UK) 5.0 g/L, NaN3 1.0 g/L buffered to pH 7.4). Antibody-bound insulin was separated on from free insulin by the addition of a second antibody (donkey anti-guinea pig Ig) coated on cellulose, Sac-Cel (IDS, Boldon, Tyne & Wear, UK). The antibody-bound insulin precipitate was separated by centrifugation. Counts bound were measured on an LKB Rackgamma solid scintillation counter.

[3] = system: Obese (fa/fa) Zucker rats; experiment: Lipidemia study, plasma glycerol and triglycerides; format: in vivo, rat
Experimental: Obese (fa/fa) Zucker rats were treated as in example 1 above. On the last day of treatment (day 6), food was removed at 5:00 p.m., and the rats were fasted overnight. At 9:00 a.m. the next day, the animals were subjected to a glucose challenge, given as 0.8 gram/kg of glucose orally. Periodic 400 μl of blood samples were taken from the tail vein (Peterson, R. G., ILAR News, 32:16-19 (1990)) 60 min. and 30 min. before and at 30, 60, 90, and 120 min. after the administration of the glucose challenge (0.8 gram/kg orally). Aprotinin (Traysylol, Bayer UK, Hayward's Health, W. Sussex, U.K.) and heparin (Sigma Chemical Co., Poole, Dorset, U.K.) were added to the blood samples to a final concentration of 400 KIU/ml and 100 units/ml, respectively. Plasma fractions were prepared from these samples by centrifugation at 4000×G in a microfuge, for the estimation of triglycerides and glycerol. Samples were then stored at −80° C. until assayed.
Plasma glycerol and triglycerides were determined using the Sigma Enzymatic (Tinder) calorimetric assay kit (Cat #337-B, Sigma Chemical Co., Poole, Dorset, U.K.) and measuring absorbance at 540 nm in a spectrophotometer.

[4] = target: human SSTR-2 (Homo sapiens, UniProt P30874); experiment: Somatostatin receptor binding assay, hSSTR-2
Chain of human SSTR-2 (P30874 whole entry): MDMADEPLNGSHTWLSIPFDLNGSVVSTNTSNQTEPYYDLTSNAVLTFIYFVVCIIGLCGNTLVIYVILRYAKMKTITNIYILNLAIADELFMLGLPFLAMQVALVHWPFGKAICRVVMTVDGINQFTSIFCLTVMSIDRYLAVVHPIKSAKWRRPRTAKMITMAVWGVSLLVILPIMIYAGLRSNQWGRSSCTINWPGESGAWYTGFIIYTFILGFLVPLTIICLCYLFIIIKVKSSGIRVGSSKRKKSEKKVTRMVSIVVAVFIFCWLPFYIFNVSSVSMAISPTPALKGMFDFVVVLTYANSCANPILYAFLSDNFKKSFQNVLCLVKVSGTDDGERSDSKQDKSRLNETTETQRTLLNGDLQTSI

[5] = target: human SSTR-5 (Homo sapiens, UniProt P35346); experiment: Somatostatin receptor binding assay, hSSTR-5
Chain of human SSTR-5 (P35346 whole entry): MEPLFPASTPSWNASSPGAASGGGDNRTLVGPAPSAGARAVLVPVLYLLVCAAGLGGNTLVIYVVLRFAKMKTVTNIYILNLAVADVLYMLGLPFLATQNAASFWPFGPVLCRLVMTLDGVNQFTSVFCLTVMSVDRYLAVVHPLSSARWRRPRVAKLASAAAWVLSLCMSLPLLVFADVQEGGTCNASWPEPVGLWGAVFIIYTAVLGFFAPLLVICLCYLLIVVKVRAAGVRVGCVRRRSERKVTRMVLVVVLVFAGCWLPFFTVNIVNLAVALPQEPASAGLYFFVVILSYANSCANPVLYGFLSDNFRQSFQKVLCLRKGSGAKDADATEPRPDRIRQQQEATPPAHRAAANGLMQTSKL

[6] = system: fatty (fa/fa) Zucker rats; details: 3 mg/kg s.c. twice daily, 6 days
[7] = target: human SSTR-4 (Homo sapiens, UniProt P31391); experiment: Somatostatin receptor binding assay, hSSTR-4
Chain of human SSTR-4 (P31391 whole entry): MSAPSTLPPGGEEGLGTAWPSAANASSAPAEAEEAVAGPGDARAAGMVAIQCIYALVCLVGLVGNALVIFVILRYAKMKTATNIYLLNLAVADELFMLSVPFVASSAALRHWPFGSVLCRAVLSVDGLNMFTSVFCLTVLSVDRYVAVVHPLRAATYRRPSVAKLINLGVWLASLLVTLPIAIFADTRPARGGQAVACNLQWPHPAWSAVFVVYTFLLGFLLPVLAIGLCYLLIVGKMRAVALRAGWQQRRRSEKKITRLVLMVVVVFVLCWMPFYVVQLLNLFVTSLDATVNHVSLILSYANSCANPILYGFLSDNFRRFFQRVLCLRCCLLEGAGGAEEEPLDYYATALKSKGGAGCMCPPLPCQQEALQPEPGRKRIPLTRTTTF

[8] = target: human SSTR-3 (Homo sapiens, UniProt P32745); experiment: Somatostatin receptor binding assay, hSSTR-3
Chain of human SSTR-3 (P32745 whole entry): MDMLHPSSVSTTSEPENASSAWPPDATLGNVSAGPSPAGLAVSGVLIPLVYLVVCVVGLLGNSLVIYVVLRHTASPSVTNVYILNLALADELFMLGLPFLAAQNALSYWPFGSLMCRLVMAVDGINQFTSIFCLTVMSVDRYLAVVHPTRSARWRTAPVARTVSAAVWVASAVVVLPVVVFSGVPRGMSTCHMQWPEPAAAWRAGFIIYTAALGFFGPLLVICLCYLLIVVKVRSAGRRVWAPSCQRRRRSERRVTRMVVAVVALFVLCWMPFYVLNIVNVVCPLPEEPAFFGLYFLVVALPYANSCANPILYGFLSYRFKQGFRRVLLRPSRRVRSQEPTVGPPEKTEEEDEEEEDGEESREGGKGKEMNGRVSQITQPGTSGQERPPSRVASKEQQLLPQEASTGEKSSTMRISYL

[9] = 3 mg/kg s.c. twice daily, 6 days, samples 30 and 60 minutes before oral glucose challenge, FIG. 1/2
[10] = throughout the 2-hour test period after oral glucose challenge

In the case of C[C@@H](O)[C@@H]1NC(=O)[C@H](CCCCN)NC(=O)[C@@H](Cc2c[nH]c3ccccc23)NC(=O)[C@H](Cc2ccccc2)NC(=O)[C@H](Cc2ccccc2)NC(=O)[C@@H](N)CSSC[C@@H](C(N)=O)NC(=O)[C@H](Cc2ccccc2)NC1=O [BIM-23268, H-Cys-Phe-Phe-D-Trp-Lys-Thr-Phe-Cys-NH2] (H-CFF[dW]KTFC-NH2; disulfide 1-8), the pKi ([1]; read-out: Ki hSSTR-1) was 5.91, the insulin-sensitivity [2] was “produced an improvement in insulin-sensitivity” and the glucose tolerance ([2]; oral glucose 0.8 g/kg after overnight fast) was “did not show an impairment in glucose tolerance”. The “glucose stimulated insulin secretion to the glucose challenge” value ([2]; oral glucose 0.8 g/kg after overnight fast, vs saline group) was “significant suppression”, the “plasma glucose profile versus untreated group” value ([2]; oral glucose 0.8 g/kg, up to 240 min) was “not significantly different” and the plasma glycerol [3, 9] was “significantly lowered”. The plasma triglycerides [3, 9] was “significantly lowered”, the hypertriglyceridemia ([3]; 6-day treatment, 3 mg/kg s.c. twice daily) was “effective in reducing hypertriglyceridemia” and the plasma glycerol [3, 10] was “significantly lower”. For the same compound, the plasma triglycerides [3, 10] was “significantly lower”, the pKi ([4]; read-out: Ki hSSTR-2) was 7.82 and the pKi ([5]; read-out: Ki hSSTR-5) was 9.38. For the same compound, the “amount of food consumed over the entire treatment period versus control” value [6] was “no difference”, the “body weight gain versus control” value [6] was “lower” and the “toxic effect, appearance of treated group” value [6] was “appeared healthy”. The “group mean weight after six days” value ([6]; 413.6 at start of trial, control 414.09 to 418.89) was 413.6 and the average food consumption ([6]; control 26.0) was 25.9 g/rat/day.

Compound NCCCC[C@@H]1NC(=O)[C@@H](Cc2c[nH]c3ccccc23)NC(=O)[C@H](Cc2ccccc2)NC(=O)[C@H](Cc2ccccc2)NC(=O)[C@@H](N)CSSC[C@@H](C(N)=O)NC(=O)[C@H](Cc2ccccc2)NC(=O)[C@H](CO)NC1=O [BIM-23284, H-Cys-Phe-Phe-D-Trp-Lys-Ser-Phe-Cys-NH2] (H-CFF[dW]KSFC-NH2; disulfide 1-8) has a pKi [1] of 7.55, a pKi [7] of 7.23 and a pKi [4] of 7.71. It also gave a pKi [8] of 7.45 and a pKi [5] of 9.07.

With C[C@@H](O)[C@@H]1NC(=O)[C@H](CCCCN)NC(=O)[C@@H](Cc2c[nH]c3ccccc23)NC(=O)[C@H](Cc2ccc(O)c(I)c2)NC(=O)[C@H](Cc2ccccc2)NC(=O)[C@@H](N)CSSC[C@@H](C(N)=O)NC(=O)[C@H](Cc2ccccc2)NC1=O [BIM-23313, H-Cys-Phe-Tyr(I)-D-Trp-Lys-Thr-Phe-Cys-NH2] the pKi ([1]; membranes of transfected CHO-K1 cells, [125I-Tyr11]somatostatin-14 0.05 nM, read-out: Ki hSSTR-1) was 7.82.

Compound C[C@@H](O)[C@@H]1NC(=O)[C@H](CCCCN)NC(=O)[C@@H](Cc2c[nH]c3ccccc23)NC(=O)[C@H](Cc2ccc(O)cc2)NC(=O)[C@H](Cc2ccccc2)NC(=O)[C@@H](N)CSSC[C@@H](C(N)=O)NC(=O)[C@H](Cc2ccccc2)NC1=O [BIM-23295, H-Cys-Phe-Tyr-D-Trp-Lys-Thr-Phe-Cys-NH2] (H-CFY[dW]KTFC-NH2; disulfide 1-8) has a pKi [1] of 7.06, a pKi [7] of 8.47 and a pKi [4] of 8.21. For the same compound, the pKi [8] was 8.01 and the pKi [5] was 9.47.
